Measured values reported in BindingDB's records for doi:10.1016/j.bmcl.2008.02.015 (Deltagen Research Laboratories (Former Combichem), 2008).
pIC50: −log10 of the molar value.

Assay: Antagonist activity at human CCR2 in THP1 cells assessed as inhibition of MCP1-induced chemotaxis

Structure (SMILES) | pIC50
O=C(CNC(=O)c1cccc(C(F)(F)F)c1)N[C@@H]1CCN(Cc2ccccc2)C1 | 6.38
COc1ccc(CN2CC[C@@H](NC(=O)CNC(=O)c3cccc(C(F)(F)F)c3)C2)cc1 | 7.46
COc1ccc(CN2CC[C@@H](NC(=O)CNC(=O)c3cc(C(F)(F)F)ccc3N)C2)cc1 | 7.96
O=C(CCNC(=O)c1cccc(C(F)(F)F)c1)N[C@@H]1CCN(Cc2ccc(Cl)cc2)C1 | 5.00
O=C(CNC(=O)c1cccc(C(F)(F)F)c1)N[C@@H]1CCN(Cc2ccccc2-c2ccc3ccccc3c2)C1 | 7.13
Cc1ccccc1CN1CC[C@@H](NC(=O)CNC(=O)c2cccc(C(F)(F)F)c2)C1 | 6.90
Nc1ccc(C(F)(F)F)cc1C(=O)NCC(=O)N[C@@H]1CCN(Cc2ccc(Cl)cc2)C1 | 8.44
Cc1ccc(CN2CC[C@@H](NC(=O)CNC(=O)c3cc(C(F)(F)F)ccc3N)C2)cc1N | 7.92
Nc1ccc(OC(F)(F)F)cc1C(=O)NCC(=O)N[C@@H]1CCN(Cc2ccc(Cl)cc2)C1 | 7.37
O=C(CNC(=O)c1cccc(C(F)(F)F)c1)N[C@@H]1CCN(Cc2ccc(O)cc2)C1 | 8.26
COc1cc(CN2CC[C@@H](NC(=O)CNC(=O)c3cccc(C(F)(F)F)c3)C2)ccc1O | 7.11
O=C(CNC(=O)c1cccc(Br)c1)N[C@@H]1CCN(Cc2ccc(Cl)cc2)C1 | 6.33
C=Cc1ccc(CN2CC[C@@H](NC(=O)CNC(=O)c3cc(C(F)(F)F)ccc3N)C2)cc1 | 8.41
O=C(CNC(=O)c1cccc(C(F)(F)F)c1)N[C@@H]1CCN(Cc2ccc(OC(F)(F)F)cc2)C1 | 6.99
CSc1ccc(CN2CC[C@@H](NC(=O)CNC(=O)c3cccc(C(F)(F)F)c3)C2)cc1 | 7.68
COc1cc(CN2CC[C@@H](NC(=O)CNC(=O)c3cc(C(F)(F)F)ccc3N)C2)ccc1O | 7.85
Nc1ccc(C(F)(F)F)cc1C(=O)NCC(=O)N[C@@H]1CCN(Cc2ccc(Br)cc2)C1 | 8.59
O=C(CNC(=O)c1cccc([N+](=O)[O-])c1)N[C@@H]1CCN(Cc2ccc(Cl)cc2)C1 | 6.35
CCc1ccc(CN2CC[C@@H](NC(=O)CNC(=O)c3cc(C(F)(F)F)ccc3N)C2)cc1 | 9.05
C=Cc1ccc(CN2CC[C@@H](NC(=O)CNC(=O)c3cccc(C(F)(F)F)c3)C2)cc1 | 8.21
O=C(CNC(=O)c1cccc(C(F)(F)F)c1)N[C@@H]1CCN(Cc2ccc(F)cc2)C1 | 6.92
Nc1cc(CN2CC[C@@H](NC(=O)CNC(=O)c3cc(C(F)(F)F)ccc3N)C2)ccc1O | 7.74
Cc1ccc(CN2CC[C@@H](NC(=O)CNC(=O)c3cc(C(F)(F)F)ccc3N)C2)cc1 | 8.51

Results, then the compound that gave them:

pIC50 | Structure (SMILES)
8.04 | COc1ccc(CN2CC[C@@H](NC(=O)CNC(=O)c3cc(C(F)(F)F)ccc3N)C2)cc1O
7.68 | O=C(CNC(=O)c1cccc(C(F)(F)F)c1)N[C@@H]1CCN(Cc2ccc(Br)cc2)C1
6.44 | O=C(CNC(=O)c1cccc(OC(F)(F)F)c1)N[C@@H]1CCN(Cc2ccc(Cl)cc2)C1
8.03 | CCc1ccc(CN2CC[C@@H](NC(=O)CNC(=O)c3cccc(C(F)(F)F)c3)C2)cc1
7.96 | Nc1cc(CN2CC[C@@H](NC(=O)CNC(=O)c3cc(C(F)(F)F)ccc3N)C2)ccc1Cl
7.80 | Cc1ccc(CN2CC[C@@H](NC(=O)CNC(=O)c3cccc(C(F)(F)F)c3)C2)c(C)c1 [(R)-N-(2-(1-(2,4-dimethylbenzyl)pyrrolidin-3-ylamino)-2-oxoethyl)-3-(trifluoromethyl)benzamide]
7.66 | Nc1ccc(I)cc1C(=O)NCC(=O)N[C@@H]1CCN(Cc2ccc(Cl)cc2)C1
9.08 | Cc1ccc(CN2CC[C@@H](NC(=O)CNC(=O)c3cc(C(F)(F)F)ccc3N)C2)c(C)c1
8.06 | COc1ccc(CN2CC[C@@H](NC(=O)CNC(=O)c3cc(C(F)(F)F)ccc3N)C2)cc1N
7.62 | O=C(CNC(=O)c1cccc(C(F)(F)F)c1)N[C@@H]1CCN(Cc2ccc(Cl)cc2)C1 [(R)-N-(2-(1-(4-chlorobenzyl)pyrrolidin-3-ylamino)-2-oxoethyl)-3-(trifluoromethyl)benzamide]
8.29 | Nc1ccc(C(F)(F)F)cc1C(=O)NCC(=O)N[C@@H]1CCN(Cc2ccc(O)cc2)C1
4.66 | CC(NC(=O)c1cccc(C(F)(F)F)c1)C(=O)N[C@@H]1CCN(Cc2ccc(Cl)cc2)C1 (stereo partly drawn)
7.37 | Nc1ccc([N+](=O)[O-])cc1C(=O)NCC(=O)N[C@@H]1CCN(Cc2ccc(Cl)cc2)C1
6.38 | O=C(CNC(=O)c1cccc(C(F)(F)F)c1)N[C@@H]1CCN(Cc2ccccc2Cl)C1
7.91 | Cc1ccc(CN2CC[C@@H](NC(=O)CNC(=O)c3cccc(C(F)(F)F)c3)C2)cc1
